Assay results as given in paper PMC12172326 (Journal of Biomedical Science, 2025).
Each block holds one compound with its values, some of them ahead of it.

Key:
[1] = ex vivo stability in mouse plasma; type: in vitro ADME; conditions: 100 μg/ml, room temperature, 0-180 min
Method: (§1) An ex vivo evaluation of drug stability was conducted in mouse and human plasma samples (WuXi AppTec, Shanghai, China). […] Samples were, thereafter, incubated at room temperature for 0, 15, 30, 60, 120, and 180 min before immediate drug extraction. […] Extraction was performed by adding ethyl acetate containing the internal standard (donepezil—known to undergo first-pass hepatic metabolism) to the spiked sample (100 μL), vortexed for 1 min, and centrifuged at 13,000 rpm, 4 °C for 10 min. The supernatant was used for LC–MS/MS analysis.
(§2) LC–MS/MS analysis was performed with a Vanquish Flex UHPLC (Thermo Scientific) and a Orbitrap Exploris 240 mass spectrometer (Thermo Scientific). Samples were separated on a C18 UHPLC column (100 mm × 2.1 mm, 3 μm; Thermo Scientific). The mobile phase A for LC separation was 0.1% formic acid and the mobile phase B was 0.1% formic acid in methanol. The chromatography gradient was designed for a linear increase from 5% B in 1 min, 5% B to 95% B in 8 min, 95% B in 3 min, and 5% B in 3 min. The flow rate was maintained at 0.3 mL/min. Mass spectra were acquired using the data-dependent Top 4 MS2 (ddMS2) method with a mass scan (100–1000 m/z) and 120,000 MS resolution.

[2] = ex vivo stability in human plasma; type: in vitro ADME; conditions: 100 μg/ml, room temperature, 0-180 min
Method: as §1, §2

[3] = cited from earlier work
[4] = test system: p-glycoprotein; parameters: method as in PMID 21825263; conditions: cited from earlier work
[5] = test system: Aiolos; test: Aiolos degradation, Western blot in MM.1S cells; type: cell-based, human; conditions: 4 h, 0.1 to 10 μM, Aiolos/GAPDH, read-out: IC50 to lower Aiolos protein expression
Method: (§3) This cell line was obtained from the Korean Cell Line Bank (catalog no. 30105; Seoul, Korea), grown in DMEM (supplemented with 10% FBS, penicillin 100 U/mL and streptomycin 100 μg/mL, and maintained at 37 °C and 5% CO2). […] These were grown in RPMI media supplemented with 10% FBS, penicillin 100 U/mL, and streptomycin […], and maintained at 37 °C and 5% CO2. MM.1S cells were treated with drug (0.1 to 10 μM) for 4 h, and their cell lysates were prepared for Western blot analysis, as described previously.
(§4) For Western blot analysis, total proteins were extracted using RIPA buffer (Thermo Fisher Scientific, Waltham, MA) containing Halt Protease Inhibitor Cocktail (Thermo Fisher Scientific). Thereafter, proteins were separated by gel electrophoresis and then transferred to polyvinylidene difluoride (PVDF) membranes (Thermo Fisher Scientific), as detailed previously. The following primary antibodies were used: (i) anti-SALL4 antibody (catalog no. ab29112; 1:1000; Abcam, UK); (ii) anti-Aiolos antibody (catalog no. 15103; 1:1000; Cell Signaling Technology, Danvers, MA, USA); and (iii) anti-GAPDH antibody (catalog no. ab8245; 1:5000; Abcam, Cambridge, UK). […] Antigen–antibody complexes were detected using enhanced chemiluminescence (Thermo Fisher Scientific, iBright CL1500).

[6] = test system: SALL4; test: SALL4 degradation, Western blot in Tera-1 cells; type: cell-based, human; conditions: 4 h, 0.1 to 10 μM, SALL4/GAPDH, read-out: IC50 to lower SALL4 protein expression
Method: as §3, §4

ex vivo stability in mouse plasma [1]: rapidly disappears | ex vivo stability in human plasma [2]: rapidly disappears
SMILES: Nc1cccc2c1C(=S)N(C1CCC(=S)NC1=O)C2=O (stereo not drawn) [3,6′-DTP, 3,6′-dithiopomalidomide, reference compound]

SMILES: Nc1cccc2c1CN(C1CCC(=O)NC1=O)C2=O (stereo not drawn) [Lenalidomide]
CSF/plasma ratio [3]: 0.11 | substrate for the efflux transporter p-glycoprotein [4]: substrate

IC50 [5]: 60 nM | IC50 [6]: 40 nM
SMILES: Nc1cccc2c1C(=O)N(C1CCC(=O)NC1=O)C2=O (stereo not drawn) [Pom, Pomalidomide]
